Results published in ChEMBL document CHEMBL1201862, “PubChem BioAssay data set” (2004).
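Compound exposure: 48 hours, 5 concentrations, 96-well plates. Here, GI50 denotes the concentration required for 50% inhibition of growth.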 The source made the active and inactive calls. Rule as the data show it: active = GI50 up to about 1.1 µM and inactive = higher.

How the values were obtained:
Test in all cases: inhibition of tumour cell growth, NCI panel, 48 h
HCT-15 = system: HCT-15
OVCAR-5 = system: OVCAR-5
SK-MEL-2 = system: SK-MEL-2
T47D = system: T47D
MOLT-4 = system: MOLT-4
ACHN = system: ACHN
HCC 2998 = system: HCC 2998
NCI-H23 = system: NCI-H23
SW-620 = system: SW-620
U-251 = system: U-251
UACC-257 = system: UACC-257
SNB-19 = system: SNB-19
SN12C = system: SN12C
NCI-H460 = system: NCI-H460
EKVX = system: EKVX
Malme-3M = system: Malme-3M
A498 = system: A498
UACC-62 = system: UACC-62
NCI-H522 = system: NCI-H522
SR = system: SR

Row | SMILES | GI50 (HCT-15) [µM] | GI50 (OVCAR-5) | GI50 (SK-MEL-2) | GI50 (T47D) | GI50 (MOLT-4) | GI50 (ACHN) | GI50 (HCC 2998) | GI50 (NCI-H23) | GI50 (SW-620) | GI50 (U-251) | GI50 (UACC-257) | GI50 (SNB-19) | GI50 (SN12C) | GI50 (NCI-H460) | GI50 (EKVX) | GI50 (Malme-3M) | GI50 (A498) | GI50 (UACC-62) | GI50 (NCI-H522) | GI50 (SR)
1 | CCCCNC(=S)N/C=C1\C(=O)Oc2ccccc2C1=O | 48 | > 100 µM (inactive) | 38.5 µM (inactive) | 81.5 µM (inactive) | 43.3 µM (inactive) | 31.4 µM (inactive) | 68.7 µM (inactive) | 88.5 µM (inactive) | 41.7 µM (inactive) | 54 µM (inactive) | > 100 µM (inactive) | 49.4 µM (inactive) | 68.5 µM (inactive) | 64.1 µM (inactive) | > 100 µM (inactive) |  |  |  |  | 
2 | [BH3-][P+]1(CC[P@@+]([BH3-])(c2ccccc2)c2ccccc2OC)[C@@H](C)[C@@H](O)[C@H](O)[C@@H]1C (some centres not stated) | 17.5 | 18.1 µM (inactive) | 15.7 µM (inactive) | 15.9 µM (inactive) | 20.4 µM (inactive) | 17.6 µM (inactive) |  | 16 µM (inactive) | 16.9 µM (inactive) | 16.9 µM (inactive) | 4.19 µM (inactive) | 17 µM (inactive) | 13.4 µM (inactive) | 16.4 µM (inactive) | 12.4 µM (inactive) | 11.2 µM (inactive) | 18 µM (inactive) | 14.8 µM (inactive) | 12.4 µM (inactive) | 
3 | O=c1c(C(c2cnc3ccccc3c2)c2c(O)oc3ccccc3c2=O)c(O)oc2ccccc12 | 44.6 |  | 47.2 µM (inactive) | > 100 µM (inactive) | 27.7 µM (inactive) |  |  | 41.7 µM (inactive) | 29.6 µM (inactive) | 29 µM (inactive) | 37.3 µM (inactive) | 23.2 µM (inactive) | 25.5 µM (inactive) | 27.6 µM (inactive) | 99.3 µM (inactive) | 35.2 µM (inactive) | 92.5 µM (inactive) | 17.6 µM (inactive) | 36.1 µM (inactive) | 
4 | COCCCCCC(=O)CP(=O)(OC)OC | > 100 | > 100 µM (inactive) | > 100 µM (inactive) |  | > 100 µM (inactive) | > 100 µM (inactive) | > 100 µM (inactive) | > 100 µM (inactive) | > 100 µM (inactive) | > 100 µM (inactive) | > 100 µM (inactive) | > 100 µM (inactive) | > 100 µM (inactive) | > 100 µM (inactive) | > 100 µM (inactive) | > 100 µM (inactive) | > 100 µM (inactive) | > 100 µM (inactive) | > 100 µM (inactive) | 52 µM (inactive)
5 | CN(C)C1(c2cc3ccccc3s2)CCCCC1 | 37.4 | 22.5 µM (inactive) | 24.3 µM (inactive) |  | 19.2 µM (inactive) | 51.2 µM (inactive) | 22.9 µM (inactive) | 49.8 µM (inactive) | 0.125 µM (active) | 43.6 µM (inactive) | 28.1 µM (inactive) | 49 µM (inactive) | 53.2 µM (inactive) | 29.2 µM (inactive) | > 100 µM (inactive) |  | 32.8 µM (inactive) | 20.5 µM (inactive) | 16.7 µM (inactive) | 18 µM (inactive)
6 | CCCCC1(OC(=O)CCC(=O)O)CCC2(CCC(C)C(C/C=C(C)/C=C/C(O)C(C)/C=C/C(=O)O)O2)OC1CC/C(C)=C/C(=O)O (configuration not stated) | 3.45 | 3.94 µM (inactive) | 1.71 µM (inactive) |  | 5.02 µM (inactive) | 5.74 µM (inactive) | 3.33 µM (inactive) | 0.535 µM (active) | 8.3 µM (inactive) | 4.35 µM (inactive) | 1.55 µM (inactive) | 3.11 µM (inactive) | 2.77 µM (inactive) | 6.18 µM (inactive) | 5.2 µM (inactive) | 7.73 µM (inactive) | 3.26 µM (inactive) | 0.971 µM (active) | 2.77 µM (inactive) | 3.04 µM (inactive)
7 | O=C(NS(=O)(=O)Nc1ccc(Cl)cc1)OCc1ccc(Cl)cc1Cl | 34.3 | 24.2 µM (inactive) | 28.8 µM (inactive) |  | 46.2 µM (inactive) | 38.5 µM (inactive) | 12.1 µM (inactive) | 20.2 µM (inactive) | 33.3 µM (inactive) | 28.6 µM (inactive) | 46.6 µM (inactive) | 18.6 µM (inactive) | 25.3 µM (inactive) | 13.4 µM (inactive) |  | 19.1 µM (inactive) | 3.94 µM (inactive) | 14 µM (inactive) |  | 38.2 µM (inactive)
8 | N#CCCN(CCC#N)c1ccc(/C=C2\N=C(c3ccccc3)N(NC(N)=S)C2=O)cc1 | > 100 | > 100 µM (inactive) | > 100 µM (inactive) | > 100 µM (inactive) | > 100 µM (inactive) | > 100 µM (inactive) |  |  | > 100 µM (inactive) | > 100 µM (inactive) | > 100 µM (inactive) | > 100 µM (inactive) | > 100 µM (inactive) | > 100 µM (inactive) | > 100 µM (inactive) | > 100 µM (inactive) | > 100 µM (inactive) | > 100 µM (inactive) |  | 
9 | COc1cc2c[n+](C)c3c4cc5c(cc4ccc3c2cc1OC)OCO5 [NITIDINE CHLORIDE] | > 100 | 1.24 µM (inactive) | 2.68 µM (inactive) |  | 0.411 µM (active) | 71.9 µM (inactive) | 2.07 µM (inactive) | 1.07 µM (active) | 1.14 µM (inactive) | 0.371 µM (active) | 26.1 µM (inactive) | 0.698 µM (active) | 0.447 µM (active) | 1.73 µM (inactive) | 1.7 µM (inactive) | 14.5 µM (inactive) | 1.09 µM (active) | 1.25 µM (inactive) | 0.24 µM (active) | 0.839 µM (active)
10 | CC1(C)CCC(Sc2ccccc2)O1 (configuration not stated) | > 100 |  | > 100 µM (inactive) |  | > 100 µM (inactive) | > 100 µM (inactive) | > 100 µM (inactive) | > 100 µM (inactive) | > 100 µM (inactive) | > 100 µM (inactive) | > 100 µM (inactive) | > 100 µM (inactive) | > 100 µM (inactive) | > 100 µM (inactive) | > 100 µM (inactive) |  | > 100 µM (inactive) | > 100 µM (inactive) |  | > 100 µM (inactive)
11 | CCN(CC)CC(C(C)=O)C(c1ccccc1)c1c(O)c2ccccc2oc1=O (configuration not stated) | > 100 | > 100 µM (inactive) | > 100 µM (inactive) |  | > 100 µM (inactive) | > 100 µM (inactive) | > 100 µM (inactive) |  | > 100 µM (inactive) | > 100 µM (inactive) | 63.1 µM (inactive) | > 100 µM (inactive) | > 100 µM (inactive) | > 100 µM (inactive) | > 100 µM (inactive) | > 100 µM (inactive) | > 100 µM (inactive) | > 100 µM (inactive) | > 100 µM (inactive) | > 100 µM (inactive)
12 | O=C1Oc2ccccc2C(=O)/C1=C/NC(=S)NCc1ccccc1 | 49.5 | > 100 µM (inactive) | 19.3 µM (inactive) | 81.7 µM (inactive) | 54.3 µM (inactive) | 25.1 µM (inactive) | 72.4 µM (inactive) | 36.2 µM (inactive) | 99.1 µM (inactive) | 57.3 µM (inactive) | 90.6 µM (inactive) | 43.6 µM (inactive) | 56.5 µM (inactive) | 70 µM (inactive) | > 100 µM (inactive) |  |  |  |  | 
13 | Cc1nc(C)c(Cc2ccccc2)o1 | > 100 | > 100 µM (inactive) |  | > 100 µM (inactive) | > 100 µM (inactive) | > 100 µM (inactive) | > 100 µM (inactive) | > 100 µM (inactive) | > 100 µM (inactive) | > 100 µM (inactive) | > 100 µM (inactive) | > 100 µM (inactive) | > 100 µM (inactive) | > 100 µM (inactive) | > 100 µM (inactive) | > 100 µM (inactive) | > 100 µM (inactive) | > 100 µM (inactive) | > 100 µM (inactive) | 
14 | COc1ccc(NC(=O)CC/C(CC(=O)c2ccco2)=N/Nc2ccc([N+](=O)[O-])cc2[N+](=O)[O-])cc1 | > 100 | > 100 µM (inactive) | 72.1 µM (inactive) |  | 29.3 µM (inactive) | > 100 µM (inactive) | > 100 µM (inactive) | 14.3 µM (inactive) | 99.8 µM (inactive) | > 100 µM (inactive) | 49.8 µM (inactive) | > 100 µM (inactive) | > 100 µM (inactive) | > 100 µM (inactive) | > 100 µM (inactive) | > 100 µM (inactive) | > 100 µM (inactive) | 34.4 µM (inactive) | 55 µM (inactive) | 26.7 µM (inactive)
15 | OC1OC(c2ccco2)C(F)(F)C(F)(F)C1(F)F (configuration not stated) | 90.4 | > 100 µM (inactive) | > 100 µM (inactive) | 46.2 µM (inactive) |  | > 100 µM (inactive) |  |  | > 100 µM (inactive) | > 100 µM (inactive) | > 100 µM (inactive) | > 100 µM (inactive) | > 100 µM (inactive) | > 100 µM (inactive) | 81.7 µM (inactive) | 51.8 µM (inactive) | > 100 µM (inactive) | > 100 µM (inactive) |  | 
16 | O=C(CCc1nnc2s/c(=C\c3ccccc3)c(=O)n12)Nc1cc(Cl)ccc1Cl | 34.2 | > 100 µM (inactive) | > 100 µM (inactive) |  | > 100 µM (inactive) | > 100 µM (inactive) | > 100 µM (inactive) | > 100 µM (inactive) | 4.15 µM (inactive) | > 100 µM (inactive) | > 100 µM (inactive) | > 100 µM (inactive) | > 100 µM (inactive) | > 100 µM (inactive) | > 100 µM (inactive) | > 100 µM (inactive) | > 100 µM (inactive) | > 100 µM (inactive) | > 100 µM (inactive) | > 100 µM (inactive)
